pEC50, pIC50: −log10 of the molar value. Several values for one entry are separate records, joined by “and”; a condition that tells them apart may be missing. Identical values can stand only once. Activity calls are given as the source filed them.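 The calls were made as follows: active = compounds giving half or more protection of infected cells from virus-caused growth loss, again on retest; inactive = the rest.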
Test system: CEM cells HIV-1 protection, formazan growth assay
Test: NCI AIDS Antiviral Assay
Details: for pIC50: measured here: growth of uninfected CEM cells
Summary of the method: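 Protection of CEM cells against HIV-1 was scored from cell growth (soluble formazan) across five concentrations, with parallel uninfected cells. Lack of protection may reflect toxicity.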

Row | SMILES | pEC50 | pIC50 | outcome
1 | CCCCCCCCCCCCCCCC=C(c1cc(Br)cc(C(=O)OC)c1OC)c1cc(Br)cc(C(=O)OC)c1OC | < 4.59 | < 4.59 | 
2 | CC(=O)NNc1nc(C)c(C(=O)/C=C/c2ccc(Cl)cc2)s1 | < 4.25 | < 4.25 | 
3 | COC(=O)C1=CC(NC(=O)OCc2ccccc2)C(C(=O)c2ccccc2)C[C@@H]1Sc1ccccc1 (stereo partly specified) |  |  | inactive
4 | COC(=O)C(Cc1c[nH]c2ccccc12)NP(=O)(O)OCC1OC(n2cc(I)c(=O)[nH]c2=O)CC1O (stereo unspecified) | < 3.70 | < 3.70 | 
5 | Cc1ccc2c(c1)S(=O)c1cc(C)ccc1S2 |  | 4.84 | inactive
6 | O=c1c(Cl)c(Cl)cnn1-c1ccccc1 | < 3.90 | 6.54 and 5.58 | 
7 | COc1ccc(CC2COC(=O)[C@@H]2Cc2ccccc2)cc1OC (stereo partly specified) | < 3.70 | 4.12 | 
8 | CC(C)=C=CCN(C)Cc1ccccc1 | < 3.51 | < 3.51 | 
9 | O=C(O)CCCCCCCCCC(=O)O | < 3.10 | < 3.10 | 
10 | CC(C)=CCS(=O)c1ccccc1NC1=CC(=O)CC(C)(C)C1 (stereo unspecified) |  |  | inactive
11 | CC(C)NCC(O)COc1cccc2ccccc12 (stereo unspecified) | < 3.70 | 3.92 | 
12 | Cc1cc2c(C(C)C)c(O)c(O)c(C=O)c2c(O)c1-c1c(C)cc2c(C(C)C)c(O)c(O)c(C=Nc3ccc(Cc4ccc(N)cc4)cc3)c2c1O | 5.26 | 4.35 | 
13 | COC(=O)c1c2c(n(CCO)c1OC)C(=O)c1ccccc1C2=O | < 3.70 | 4.09 | 
14 | O=C1CN2CC(c3ccccc3)OC2c2ccccc2N1 (stereo unspecified) | < 3.65 | < 3.65 | 
15 | COc1ccc(/C(Nc2ccccc2)=C(\CCl)c2ccccc2)cc1OC | < 3.70 | 4.50 | 
16 | CSCS(=O)C[C@H](CO)NC(=O)/C=C/c1c(C)[nH]c(=O)[nH]c1=O (stereo partly specified) | < 3.16 | 6.35 | 
17 | Nc1nc(N)nc(-c2cccs2)n1 | < 3.70 | < 3.70 | 
18 | CN(C)C(=N)c1ccccc1 |  |  | inactive
19 | COc1ccc2c(c1)CCC1=CC3(CCC12C)SCCS3 (stereo unspecified) | < 4.23 | 4.99 | 
20 | Cc1ccc(CC(Cc2ccccc2C)C(=O)O)c(C(=O)O)c1 (stereo unspecified) | < 3.70 | < 3.70 | 
21 | CCn1c(C)nc([N+](=O)[O-])c1Sc1ncc[nH]1 | < 3.01 | 4.75 | 
22 | COc1ccc(/C(=N/O)C(c2ccc(OC)cc2)C2C(=O)Oc3ccccc32)cc1 (stereo unspecified) | < 4.75 | < 4.75 | 

Row | SMILES | pEC50 | pIC50 | outcome
23 | Cc1cccc(C)c1NC(=O)C1=NC(=S)NC(c2ccccc2)C1c1nc2ccccc2s1 (stereo unspecified) |  |  | inactive
24 | Cc1ccc(NCC2(/N=C/c3ccccc3)OC(CO)C(O)C2O)cc1 (stereo unspecified) | < 3.58 | 5.18 | 
25 | COc1ccc2c(c1)-c1c(c3cc(OC)ccc3n1CCCN(C)C)CC2 | < 3.70 | 5.26 | 
26 | COC(=O)c1c(C(=O)OC)c2c(C)nn3ccc1n23 | < 3.02 | < 3.02 | 
27 | COC(=O)Cc1ccc2c(cnn2-c2ccccc2)c1OC | < 3.70 | 4.05 | 
28 | O=C1NC(=S)N/C1=C\c1ccco1 | < 3.70 | 3.98 | 
29 | Cc1ccc(C2=C(c3ccccc3)C(Br)(c3ccccc3)C(c3ccccc3)=C2c2ccc(C)cc2)cc1 | < 4.57 | < 4.57 | 
30 | C=CC(=O)N1C/C(=C\c2ccc([N+](=O)[O-])cc2)C(=O)/C(=C/c2ccc([N+](=O)[O-])cc2)C1 | < 3.70 | 7.20 | 
31 | CN(C)CCn1c(=O)c2ccc(NCCNCCO)c3c(=O)c4cc(O)ccc4n(c1=O)c23 | < 5.70 | 6.39 | 
32 | Nc1nc(Cl)nc2c1ncn2C1CCC(COP(=O)(O)OP(=O)(O)OP(=O)(O)O)O1 (stereo unspecified) |  |  | active
33 | C=CCC1(O)CC(n2ccc(=O)[nH]c2=O)OC1CO[Si](C)(C)C(C)(C)C (stereo unspecified) | < 3.70 | < 4.00 | 
34 | O=C(Nc1ccc(S(=O)(=O)Nc2ncccn2)cc1)c1ccc(C(=O)Nc2ccc(S(=O)(=O)Nc3ncccn3)cc2)cc1 | < 3.70 | < 3.70 | 
35 | N#C/C(C(=O)Nc1ccc(Cl)cc1)=C(/N)N1CCCCC1 | < 3.70 | < 3.70 | 
36 | O=c1cn[nH]c2cc(Cl)ccc12 | < 3.93 | < 3.93 | 
37 | Oc1[nH]c2ccccc2c1N=NC(=S)N1CCCCCC1 | < 3.70 | 5.88 | 
38 | Cc1cc(C)c(SSc2c(C)cc(C)cc2C)c(C)c1 | < 3.70 | 4.55 | 
39 | O=C(/C=C/C(=O)c1cccs1)c1cccs1 | < 4.70 | 5.96 | 
40 | O=C(O)CN(c1ccccc1Cl)S(=O)(=O)c1ccccc1 |  |  | inactive
41 | O=C1C2N=NN(c3ccccc3)C2C(=O)N1c1ccccc1 (stereo unspecified) | 4.38 | < 3.70 | 
42 | COc1ccc(-c2c(C3=NCCN3)nnn2-c2ccc(Cl)cc2)cc1 | < 3.90 | 4.04 | 
43 | NC1=C(O)/C(=N/NS(=O)(=O)c2ccccc2)C(c2cccc(Cl)c2)O1 (stereo unspecified) | < 3.18 | 4.49 | 
44 | Cn1cc(-c2ccc(CCOC3CCCCO3)cc2)c2c(C#N)cccc21 (stereo unspecified) | < 3.70 | 4.41 | 

Row | SMILES | pEC50 | pIC50 | outcome
45 | CC(C(=O)OCc1ccccc1)N(Cc1ccccc1)Cc1ccccc1 (stereo unspecified) | < 3.70 | < 3.70 | 
46 | Cc1ccc(S(=O)(=O)N/N=C2/CCC(C(C)(C)C)CC2Br)cc1 (stereo unspecified) | < 3.70 | 4.51 | 
47 | O=C1c2scnc2-c2nccc3c2c1nc1ccccc13 | < 5.60 | 6.34 | 
48 | CN(C)c1ccc(C=Nc2ccc(SSc3ccc(N=Cc4ccc(N(C)C)cc4)cc3)cc2)cc1 | < 3.70 | 4.60 | 
49 | Cc1cc(NCCCCCCNc2cc(C)nc3ccc(Cl)cc23)c2cc(Cl)ccc2n1 | < 5.16 | < 5.16 | 
50 | Cc1nc(Nc2ccc(Cl)cc2Cl)sc1C(=O)Nc1ccccc1 | < 3.70 | 3.93 | 
51 | CCOC(=O)/C=C/[C@H](O[Si](CC)(CC)CC)C(C)(C)C | < 3.70 | < 3.70 | 
52 | COC(=O)C1(C(=O)OC)CC2c3c(c4ccccc4n3C)CC(C1=O)N2Cc1ccccc1 (stereo unspecified) |  |  | inactive
53 | COc1ccc(N2C(=O)c3c(c4[nH]c5ccccc5c4c4ccc(C(C)(C)C)cc34)C2=O)cc1 | < 4.94 | < 4.94 | 
54 | COc1cc(CCNC(C)=O)cc(OC)c1OC | < 3.70 | < 3.70 | 
55 | C=C1CC2OC2(C(=O)O[C@H]2CCC3[C@@H]4CCC5=CC(=O)CC[C@]5(C)C4CC[C@@]32C)C1=O (stereo partly specified) | < 3.70 | 5.14 | 
56 | COc1cc(/C=C/C(=O)c2ccc(O)c(OC)c2)ccc1O | < 3.70 | 4.94 | 
57 | Nc1nc2c(ncn2C2CC(CO)C(CO)C2)c(=O)[nH]1 (stereo unspecified) | < 3.65 | < 3.65 | 
58 | O=C(NCCCOC(=O)CCCCCCCCC(=O)OCCCNC(=O)NC(=O)c1c[nH]c(=O)[nH]c1=O)NC(=O)c1c[nH]c(=O)[nH]c1=O | 3.67 | 3.58 | 
59 | O=C(OCCN1CCCC1)c1cc2ccccc2[nH]1 | < 3.70 | < 4.00 | 
60 | Cc1cc(NS(=O)(=O)c2ccc(Nc3c4ccccc4nc4c(C(=O)Nc5ccc(S(=O)(=O)O)cc5)cccc34)cc2)no1 | 3.91 | < 3.70 | 
61 | Cn1cc2ccccc2c1-c1nc(F)nc(Oc2ccc3c(c2)CC[C@@H]2C3CC[C@@]3(C)C2C[C@H](O)[C@@H]3O)n1 (stereo partly specified) | < 5.00 | < 5.00 | 
62 | O=C(CCCC[n+]1ccccc1)Sc1ccccc1C(=O)Nc1ccc(S(=O)(=O)c2ccc([N+](=O)[O-])cc2)cc1 | 5.12 | 3.86 | 
63 | CC(=O)OC1CC2(c3ccccc3)C(=O)c3ccccc3N2O1 (stereo unspecified) | < 3.94 | < 3.94 | 
64 | Cc1noc(NC(=O)Nc2ccccc2C(F)(F)F)c1C | < 3.70 | < 3.70 | 
65 | Cc1ccc(N=Nc2c(N)nn3cc4c(nc23)-c2ccccc2C4)cc1 | < 3.70 | 5.53 | 
66 | CCCCCCCCCCCOCCC1C(C(C)OCCN2CCCC2)OC2OC(C)(C)OC21 (stereo unspecified) | < 3.70 | 5.04 | 

Row | SMILES | pEC50 | pIC50 | outcome
67 | CC(C)CCC[C@@H](C)[C@H]1CC[C@H]2[C@@H]3CCC4C[C@@H](OP(=O)(O)OCCC=C(c5cc(Cl)c(O)c(C(=O)O)c5)c5cc(Cl)c(O)c(C(=O)O)c5)CC[C@]4(C)[C@H]3CC[C@]12C (stereo partly specified) | < 3.70 | 4.47 | 
68 | CCCCNC(=O)CNC(=O)c1ccccc1SC(=O)CCCC[n+]1ccccc1 | < 3.70 | 5.03 | 
69 | CC1(C)OC(=O)c2cc(C(=CCCO)c3cc(Cl)c4c(c3)C(=O)OC(C)(C)O4)cc(Cl)c2O1 | < 3.70 | 4.54 | 
70 | CCCC1C2C(=O)N(c3ccccc3)C(=O)C2ON1c1ccccc1 (stereo unspecified) | < 4.39 | < 4.39 | 
71 | CCCCOC(=O)c1ccc(N)cc1 | < 3.70 |  | 
72 | COc1cccc(C(C#N)NC23CC4CC(CC(C4)C2)C3)c1 (stereo unspecified) |  |  | inactive
73 | COP(=O)(OC)/C(=C\c1cn(C(c2ccccc2)(c2ccccc2)c2ccccc2)cn1)NC(C)=O | < 3.70 | 4.08 | 
74 | O=C1c2ccccc2CCCC12OC2c1cccnc1 (stereo unspecified) | < 3.59 | 3.82 | 
75 | CN(C)N1C(=O)S/C(=C\c2ccc([N+](=O)[O-])cc2)C1=O | < 3.70 | < 3.70 | 
76 | COC(=O)C1C(C(=O)OC)C2C(=O)C3C(C(=O)OC)C(C(=O)OC)C3C(=O)C12 (stereo unspecified) | < 4.04 | < 4.04 | 
77 | CC(C)/C(Cl)=N\OC(=O)Nc1ccc(F)c([N+](=O)[O-])c1 | < 3.70 | 5.52 | 
78 | CCOc1ccc2nc(NC(=O)C(=O)C(C#N)CC(C)(C)C=O)sc2c1 (stereo unspecified) | < 3.32 | 3.58 | 
79 | CC(CCC[C@H](C)CO)[C@H]1[C@@H](O)C(O)C2[C@@H]3C[C@@H](O)C4(O)C[C@@H](O)CC[C@]4(C)C3CC[C@@]21C (stereo partly specified) | < 3.70 | 3.97 | 
80 | CCOC(=O)c1c(-c2ccc(OC)cc2)c(C#N)c(=S)n(C2OC(CO)C(O)C(O)C2O)c1C (stereo unspecified) | < 3.70 | < 3.70 | 
81 | CCOC(=O)NN(C(=O)OCC)c1c(C)cc(C)cc1C | < 3.70 | < 3.70 | 
82 | NC(CCSCCSCCC(N)C(=O)O)C(=O)O (stereo unspecified) | < 5.47 | < 5.47 | 
83 | O=C(Nc1cccc(C(=O)Nc2ccc(C3=NCCN3)cc2)c1)c1ccc(C2=NCCN2)cc1 | 5.04 | 3.81 | 
84 | CC1(C)C(CBr)=[N+]([O-])C(C)(C)N1O | < 3.70 | 5.43 | 
85 | CC1=C/C(=N\N(C)C)C(C(O)(C(F)(F)F)C(F)(F)F)C(C)(C)C1 (stereo unspecified) | < 3.70 | 3.99 | 
